In patent US10774051B2, “6-membered heterocyclic derivatives and pharmaceutical composition comprising the same” (Shionogi & Co., Ltd., priority 2015, dated 2020):
pIC50: −log10 of the molar value.

Each compound was assayed against human P2X7 receptor (Homo sapiens, UniProt Q99572, R270H/Y155H) (assay: Evaluation of human P2X7 receptor inhibitory activity (Yo-Pro uptake, BzATP stimulation, FLIPR TETRA)). Conditions: 1321N1 cells stably expressing human P2X7 receptor; BzATP stimulation, Yo-Pro uptake; read-out: IC50 (antagonistic activity for the human P2X7 receptor).
Type: cell-based
Procedure, shortened: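 Yo-Pro dye uptake triggered by BzATP was monitored by FLIPR in human P2X7-transfected 1321N1 cells (SNP variant) in HEPES-buffered HBSS, pH 7.4-7.5. Compound was dispensed 8 min post-stimulation, then signal read for 20 min; IC50 derived logistically from inhibition of the fluorescence range.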

| Structure (SMILES) | pIC50 |
| --- | --- |
| C=Cc1ccccc1Nc1nc(=O)c(F)cn1Cc1cc(F)c(F)c(F)c1 [Compound I-1188] | 8.40 |
| COc1cn(Cc2cc(F)cc(F)c2)c(Nc2ccc3c(c2C)COC3)nc1=O [Compound I-0900] | 7.92 |
| COc1cn(Cc2ccccc2)c(Nc2cc3nc(C)sc3cc2C)nc1=O [Compound I-0744] | 6.74 |
| CCc1cc2c(cc1Nc1nc(=O)c(F)cn1Cc1ccc(F)cc1)CCC2 [Compound I-0186] | 8.70 |
| COc1cn(Cc2ccccc2)c(Nc2cccc3sccc23)nc1=O [Compound I-0104] | 7.39 |
| COc1cn(Cc2ccc(F)c(Cl)c2)c(Nc2cccc3occc23)nc1=O [Compound I-0636] | 7.30 |
| COc1ccc(Nc2nc(=O)c(F)cn2Cc2ccc(F)c(Cl)c2)c(C)n1 [Compound I-1059] | 7.96 |
| COc1cn(Cc2ccccc2)c(Nc2cccc3c2CCO3)nc1=O [Compound I-0120] | 6.17 |

Same assay, conditions: 1321N1 cells stably expressing human P2X7 receptor; BzATP stimulation, Yo-Pro uptake; read-out: IC50 (antagonistic activity for the human P2X7 receptor), class symbol

| Structure (SMILES) | pIC50 |
| --- | --- |
| COc1cn(Cc2cc(F)cc(F)c2)c(Nc2ccc(OC(F)F)cc2C)nc1=O [Compound I-0539] | 7.00 to 8.00 |
| COc1ccccc1Cn1cc(OC)c(=O)nc1Nc1cccc(Cl)c1C [Compound I-0054] | 6.30 to 7.00 |
| CCc1c(Nc2nc(=O)c(F)cn2Cc2cccc(Cl)c2)cc(OC)cc1OC [Compound I-0315] | > 8.00 |
| Cc1c(Cl)cccc1Nc1nc(=O)c(Br)cn1Cc1ccccc1 [Compound I-0027] | 7.00 to 8.00 |
| COc1cn(Cc2cccc(F)c2)c(Nc2cc(C)c(C)cc2C)nc1=O [Compound I-0177] | > 8.00 |
| COc1cn(Cc2ccccc2)c(NCc2cccc(C(F)(F)F)c2Cl)nc1=O [Compound I-0035] | 6.30 to 7.00 |
| COc1cccc(Nc2nc(=O)c(OC)cn2Cc2cc(F)c(F)c(F)c2)c1C [Compound I-0572] | > 8.00 |
| COc1cn(Cc2ccc(F)c(F)c2)c(Nc2cc(C)c(OC(F)F)cc2C)nc1=O [Compound I-0302] | > 8.00 |
| COc1cn(Cc2cc(C)cc(F)c2)c(Nc2cccc(Cl)c2C)nc1=O [Compound I-0466] | 7.00 to 8.00 |
| COc1cn(Cc2ccc(F)c(F)c2)c(Nc2ccc(OC(F)F)cc2C)nc1=O [Compound I-0516] | 7.00 to 8.00 |
| COc1cn(Cc2ccccc2)c(Nc2cc(-c3ncco3)ccc2C)nc1=O [Compound I-0558] | 7.00 to 8.00 |
| CCc1c(Nc2nc(=O)c(OC)cn2Cc2ccc(F)cc2)cccc1OC [Compound I-0213] | > 8.00 |
| COc1cn(Cc2ccccc2)c(Nc2cccc(Cl)c2Cl)nc1=O [Compound I-0096] | 7.00 to 8.00 |
| COc1cn(Cc2ccc(F)c(Cl)c2)c(Nc2cc3[nH]ncc3cc2C)nc1=O [Compound I-0492] | > 8.00 |
| COc1cn(Cc2ccc(Cl)c(Cl)c2)c(Nc2cccc(Cl)c2C)nc1=O [Compound I-0296] | 7.00 to 8.00 |
| COc1cn(Cc2ccccc2)c(Nc2cccc3[nH]c(C)cc23)nc1=O [Compound I-0134] | 7.00 to 8.00 |
| COc1ccc(Cl)c(Nc2nc(=O)c(OC)cn2Cc2ccccc2)c1 [Compound I-0152] | 6.30 to 7.00 |
| COc1cn(Cc2ccccc2)c(N[C@@H]2CCCc3ccccc32)nc1=O [Compound I-0173] | 6.30 to 7.00 |
| COc1cn(Cc2ccc(F)c(Cl)c2)c(Nc2cccc(OC(C)C)c2C)nc1=O [Compound I-0515] | 7.00 to 8.00 |
| Cc1cccc(Nc2nc(=O)c(C(=O)O)cn2Cc2ccccc2)c1Cl [Compound I-0112] | 7.00 to 8.00 |
| CCc1c(Nc2nc(=O)c(OC)cn2Cc2cccc(Cl)c2)cccc1OC [Compound I-0214] | > 8.00 |
| CCc1cc(OC)ccc1Nc1nc(=O)c(OC)cn1Cc1ccc(F)c(Cl)c1 [Compound I-0245] | > 8.00 |
| COc1cn(Cc2ccccc2)c(Nc2ccccc2Cc2ccccc2)nc1=O [Compound I-0118] | 7.00 to 8.00 |
| COc1cn(Cc2ccc(F)c(Cl)c2)c(Nc2cc(N3CCN(C(=O)OC(C)(C)C)CC3)ccc2C)nc1=O [Compound I-0412] | 6.30 to 7.00 |
| COc1cn(Cc2ccccc2)c(Nc2cc(-c3nc4ncccc4o3)ccc2C)nc1=O [Compound I-0416] | 7.00 to 8.00 |
| COc1cc(C)cc(Nc2nc(=O)c(OC)cn2Cc2ccc(F)c(Cl)c2)c1C [Compound I-0460] | 7.00 to 8.00 |
| COc1cn(Cc2cc(F)cc(F)c2)c(Nc2cc(N3CCCS3(=O)=O)ccc2C)nc1=O [Compound I-0552] | 7.00 to 8.00 |
| CCc1ccccc1Nc1nc(=O)c(OC)cn1Cc1cccc(Cl)c1 [Compound I-0322] | 7.00 to 8.00 |
| COc1cc(C)c(Nc2nc(=O)c(OC)cn2Cc2ccc(F)c(F)c2)cc1C [Compound I-0283] | > 8.00 |

Same assay, conditions: antagonistic activity for the human P2X7 receptor; read-out: IC50

| Structure (SMILES) | pIC50 |
| --- | --- |
| COc1nc2ccc(Nc3nc(=O)c(OC)cn3Cc3cc(F)cc(F)c3)c(C)c2s1 [Compound I-0830] | 7.00 to 8.00 |
| COc1ccc(Nc2nc(=O)c(F)cn2Cc2ccc(F)c(F)c2)c(C)c1 [Compound I-0841] | > 8.00 |
| COc1ccc(Nc2nc(=O)cnn2Cc2ccc(F)c(Cl)c2)c(C)c1 [Compound I-1270] | > 8.00 |
| COc1ccc(Nc2nc(=O)c(C)nn2Cc2cc(F)c(F)c(F)c2)c(C)c1 [Compound I-1277] | > 8.00 |
| Cc1cc(Nc2nc(=O)c(F)cn2Cc2cc(F)c(F)c(F)c2)c(Cl)cc1F [Compound I-1225] | > 8.00 |
| Cc1ccc(-c2cscn2)cc1Nc1nc(=O)c(F)cn1Cc1cc(F)cc(F)c1 [Compound I-0867] | > 8.00 |
| Cc1cn(Cc2cc(F)c(F)c(F)c2)c(Nc2ccc3[nH]ccc3c2C)nc1=O [Compound I-1165] | > 8.00 |
| CCOc1cn(Cc2ccccc2)c(Nc2cc(C)c(OC)cc2C)nc1=O [Compound I-0713] | > 8.00 |
| COCCOc1ccc(C)c(Nc2nc(=O)c(F)cn2Cc2cc(F)c(F)c(F)c2)c1 [Compound I-1179] | > 8.00 |
| COc1cn(Cc2cc(F)c(F)c(F)c2)c(Nc2cc(-n3cccc3)ccc2C)nc1=O [Compound I-0894] | > 8.00 |
| CCc1cc2c(cc1Nc1nc(=O)c(OC)cn1Cc1ccccc1)OC(F)(F)O2 [Compound I-0728] | 6.30 to 7.00 |
| COc1cc(Nc2nc(=O)c(OC)cn2Cc2ccc(F)c(Cl)c2)c(C)cc1F [Compound I-0686] | > 8.00 |
| COc1cc(C)c(Nc2nc(=O)c(C#N)cn2Cc2cc(F)c(F)c(F)c2)cc1C [Compound I-1083] | > 8.00 |
| CCc1cc(OC)ccc1Nc1nc(=O)c(F)cn1Cc1cc(F)cc(F)c1 [Compound I-1214] | > 8.00 |
| COc1cn(Cc2ccccc2)c(Nc2cc(OC3CC3)ccc2C)nc1=O [Compound I-0888] | 7.00 to 8.00 |
| COc1cn(Cc2cc(F)c(F)c(F)c2)c(Nc2ccc(OC(F)(F)F)cc2C)nc1=O [Compound I-0596] | 7.00 to 8.00 |
| CCOc1cc(Nc2nc(=O)c(OC)cn2Cc2cc(F)cc(F)c2)c(C)cc1F [Compound I-0920] | 7.00 to 8.00 |
| COc1cn(Cc2cc(F)cc(F)c2)c(Nc2cc(Cl)c(F)cc2C)nc1=O [Compound I-0812] | 7.00 to 8.00 |
| Cc1ccc(CO)cc1Nc1nc(=O)c(F)cn1Cc1ccc(F)c(F)c1 [Compound I-1012] | > 8.00 |
| CCc1cc(F)ccc1Nc1nc(=O)c(F)cn1Cc1cc(F)c(F)c(F)c1 [Compound I-1208] | > 8.00 |
| COc1cn(Cc2ccc(F)cc2)c(Nc2cccc(C)c2Cl)nc1=O [Compound I-0662] | 7.00 to 8.00 |

| Structure (SMILES) | pIC50 |
| --- | --- |
| COc1ccc(Nc2nc(=O)c(C(=O)O)cn2Cc2cc(F)c(F)c(F)c2)c(C)c1 [Compound I-1099] | 7.00 to 8.00 |
| CCc1ccccc1Nc1nc(=O)c(OC)cn1Cc1ccc(F)c(F)c1 [Compound I-0674] | 7.00 to 8.00 |
| CCOC(=O)c1cn(Cc2ccc(F)c(F)c2)c(Nc2cc(C)c(OC)cc2C)nc1=O [Compound I-1109] | > 8.00 |
| Cc1cc(Nc2nc(=O)ccn2Cc2cc(F)c(F)c(F)c2)c2cc[nH]c2c1 [Compound I-1161] | > 8.00 |
| COc1cc(Nc2nc(=O)ccn2Cc2ccc(F)c(Cl)c2)c(C)c(OC)c1 [Compound I-1166] | > 8.00 |
| COc1cn(Cc2ccc(F)c(Cl)c2)c(Nc2cc(-c3ccnn3C)ccc2C)nc1=O [Compound I-0733] | 7.00 to 8.00 |
| Cc1cc(N2CCOCC2)ccc1Nc1nc(=O)c(C)cn1Cc1cc(F)c(F)c(F)c1 [Compound I-1132] | 7.00 to 8.00 |
| COc1ccc(Nc2nc(=O)cnn2Cc2ccccc2F)c(C)c1 [Compound I-1275] | 6.30 to 7.00 |
| COc1ccc(Nc2nc(=O)c(F)cn2Cc2ccc(F)c(Cl)c2)c(C)c1 [Compound I-0840] | > 8.00 |
| O=c1nc(Nc2cccc3[nH]ccc23)n(Cc2ccc(F)c(F)c2)cc1F [Compound I-1025] | > 8.00 |
| COc1cn(Cc2ccc(F)c(F)c2)c(Nc2cc(-c3ccnn3C)ccc2C)nc1=O [Compound I-0783] | 7.00 to 8.00 |
| Cc1cc(Nc2nc(=O)c(F)cn2Cc2cc(F)c(F)c(F)c2)c(C)cc1F [Compound I-1227] | > 8.00 |
| Cc1cc(Nc2nc(=O)c(F)cn2Cc2cc(F)cc(F)c2)c(C)cc1Cl [Compound I-1206] | > 8.00 |
| COc1ccc(Nc2nc(=O)c(OC)cn2Cc2ccc(F)cc2)c(C)c1 [Compound I-0739] | 7.00 to 8.00 |
| COc1cn(Cc2cc(F)cc(F)c2)c(Nc2cc3c(cc2C)OCCC3)nc1=O [Compound I-0913] | 7.00 to 8.00 |
| Cc1ccc(-c2cccn(C)c2=O)cc1Nc1nc(=O)c(C)cn1Cc1cc(F)c(F)c(F)c1 [Compound I-1143] | 7.00 to 8.00 |
| COc1cn(Cc2ccc(F)c(Cl)c2)c(Nc2ccc3ncsc3c2C)nc1=O [Compound I-0856] | 7.00 to 8.00 |
| Cc1cc(N2CCOCC2)ccc1Nc1nc(=O)ccn1Cc1cc(F)c(F)c(F)c1 [Compound I-1149] | 7.00 to 8.00 |
| COc1cn(Cc2ccc(F)c(F)c2)c(Nc2cc(-c3cccnc3)ccc2C)nc1=O [Compound I-0764] | > 8.00 |
| Cc1nc2cc(C)c(Nc3nc(=O)c(F)cn3Cc3cc(F)c(F)c(F)c3)cc2s1 [Compound I-0937] | > 8.00 |
| COc1cc(C)c(Nc2nc(=O)c(OC)cn2Cc2cccc(F)c2)cc1Cl [Compound I-0614] | > 8.00 |
